# From patent US20080200404A1, “Novel Antimalarial 9A-Carbamoyl-Aminoalkyl and 9A-Thiocarbamoyl-Aminoalkyl Azalides” (priority 2005, published 2008)
# Columns and labels:
# [1] = test system: Plasmodium falciparum clone CDC/Indochina III (W-2); experiment: In vitro antimalarial [3H]-hypoxanthine incorporation serial dilution assay, W2; assay type: cell-based; conditions: P. falciparum W2, 72 hours exposure; for IC50: Plasmodium falciparum
# How it was run: (§1)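 Blood-stage cultures in RPMI-1640 with 6% A+ erythrocytes and human plasma or ALBUMAX, 37° C under 5% CO2/5% O2. Compounds in two-fold dilutions over 11 concentrations; [3H]-hypoxanthine incorporation after 72 h total incubation, CPM normalised to untreated parasite controls; IC50 by non-linear logistic fit.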
# [2] = test system: Plasmodium falciparum TM91C235; experiment: In vitro antimalarial [3H]-hypoxanthine incorporation assay, TM91C235; assay type: cell-based; conditions: P. falciparum TM91C235 (multiple drug resistant isolate), 72 hours exposure; for IC50: Plasmodium falciparum
# How it was run: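 Multidrug-resistant P. falciparum TM91C235 was run at 0.4% parasitemia and 1% hematocrit in folate/PABA-free RPMI-1640 with ALBUMAX, at 37° C under 5% CO2/5% O2. Compound was tested in duplicate at 25,000, 2,500 and 25 ng/ml, preexposed 48 h, then [3H]-hypoxanthine was added (72 h total). Counts are expressed relative to untreated parasite controls.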
# [3] = test system: Plasmodium falciparum clone CDC/Sierra Leone I (D-6); experiment: In vitro antimalarial [3H]-hypoxanthine incorporation serial dilution assay, D6; assay type: cell-based; conditions: P. falciparum D6, 72 hours exposure; for IC50: Plasmodium falciparum, D6, 72 h, read-out: IC50 D6
# How it was run: as §1
# Plasmodium vivax = conditions: non-immune patients, as compared to controls; cited from earlier work
# Plasmodium falciparum = conditions: non-immune patients, as compared to controls; cited from earlier work
# Plasmodium cynomolgi = conditions: rhesus monkey; cited from earlier work
# Plasmodium berghei = conditions: cited from earlier work
# [4] = test system: Plasmodium yoelli nigeriensis; conditions: cited from earlier work
Compound,IC50 [1] [µg/mL],IC50 [2] [µg/mL],IC50 [3] [µg/mL],other results
CC[C@H]1OC(=O)[C@H](C)[C@@H](O[C@H]2C[C@@](C)(OC)[C@@H](O)[C@H](C)O2)[C@H](C)[C@@H](O[C@@H]2O[C@H](C)C[C@H](N(C)C)[C@H]2O)[C@](C)(O)C[C@@H](C)CN(CCCNC(=S)Nc2ccc(Br)cc2)[C@H](C)[C@@H](O)[C@]1(C)O.O=CO [Example 137],0.178,0.182,0.274,
CC[C@H]1OC(=O)[C@H](C)[C@@H](O[C@H]2C[C@@](C)(OC)[C@@H](O)[C@H](C)O2)[C@H](C)[C@@H](O[C@@H]2O[C@H](C)C[C@H](N(C)C)[C@H]2O)[C@](C)(O)C[C@@H](C)CN(CCCNC(=S)Nc2ccc(-n3cccn3)cc2)[C@H](C)[C@@H](O)[C@]1(C)O.O=CO [Example 140],0.114,0.105,0.166,
CC[C@H]1OC(=O)[C@H](C)[C@@H](O[C@H]2C[C@@](C)(OC)[C@@H](O)[C@H](C)O2)[C@H](C)[C@@H](O[C@@H]2O[C@H](C)C[C@H](N(C)C)[C@H]2O)[C@](C)(O)C[C@@H](C)CN(CCCNC(=S)Nc2ccc(S(=O)(=O)N3CCCCC3)cc2)[C@H](C)[C@@H](O)[C@]1(C)O [Example 141],0.057,0.0731,0.188,
CC[C@H]1OC(=O)[C@H](C)[C@@H](O[C@H]2C[C@@](C)(OC)[C@@H](O)[C@H](C)O2)[C@H](C)[C@@H](O[C@@H]2O[C@H](C)C[C@H](N(C)C)[C@H]2O)[C@](C)(O)C[C@@H](C)CN(CCCNC(=S)Nc2ccc(N(C)C)c3ccccc23)[C@H](C)[C@@H](O)[C@]1(C)O.O=CO [Example 142],0.186,0.192,0.348,
CC[C@H]1OC(=O)[C@H](C)[C@@H](O[C@H]2C[C@@](C)(OC)[C@@H](O)[C@H](C)O2)[C@H](C)[C@@H](O[C@@H]2O[C@H](C)C[C@H](N(C)C)[C@H]2O)[C@](C)(O)C[C@@H](C)CN(CCCNC(=S)NCc2ccco2)[C@H](C)[C@@H](O)[C@]1(C)O.O=CO [Example 143],0.439,0.234,0.322,
CC[C@H]1OC(=O)[C@H](C)[C@@H](O[C@H]2C[C@@](C)(OC)[C@@H](O)[C@H](C)O2)[C@H](C)[C@@H](O[C@@H]2O[C@H](C)C[C@H](N(C)C)[C@H]2O)[C@](C)(O)C[C@@H](C)CN(CCCNC(=S)Nc2ccc(Oc3ccccc3)nc2)[C@H](C)[C@@H](O)[C@]1(C)O.O=CO [Example 146],0.117,0.142,0.23,
CC[C@H]1OC(=O)[C@H](C)[C@@H](O[C@H]2C[C@@](C)(OC)[C@@H](O)[C@H](C)O2)[C@H](C)[C@@H](O[C@@H]2O[C@H](C)C[C@H](N(C)C)[C@H]2O)[C@](C)(O)C[C@@H](C)CN(CCCNC(=S)Nc2ccsc2C(=O)OC)[C@H](C)[C@@H](O)[C@]1(C)O.O=CO [Example 147],0.389,0.343,0.469,
CC[C@H]1OC(=O)[C@H](C)[C@@H](O[C@H]2C[C@@](C)(OC)[C@@H](O)[C@H](C)O2)[C@H](C)[C@@H](O[C@@H]2O[C@H](C)C[C@H](N(C)C)[C@H]2O)[C@](C)(O)C[C@@H](C)CN(CCCNC(=S)Nc2sc3c(c2C(=O)OC)CCCC3)[C@H](C)[C@@H](O)[C@]1(C)O [Example 148],0.24,0.426,0.862,
CC[C@H]1OC(=O)[C@H](C)[C@@H](O[C@H]2C[C@@](C)(OC)[C@@H](O)[C@H](C)O2)[C@H](C)[C@@H](O[C@@H]2O[C@H](C)C[C@H](N(C)C)[C@H]2O)[C@](C)(O)C[C@@H](C)CN(CCCNC(=S)NCC(C)C)[C@H](C)[C@@H](O)[C@]1(C)O.O=CO [Example 149],0.472,0.414,0.657,
CC[C@H]1OC(=O)[C@H](C)[C@@H](O[C@H]2C[C@@](C)(OC)[C@@H](O)[C@H](C)O2)[C@H](C)[C@@H](O[C@@H]2O[C@H](C)C[C@H](N(C)C)[C@H]2O)[C@](C)(O)C[C@@H](C)CN(CCCNC(=S)Nc2cccc3nsnc23)[C@H](C)[C@@H](O)[C@]1(C)O.O=CO [Example 150],0.091,0.105,0.181,
CC[C@H]1OC(=O)[C@H](C)[C@@H](O[C@H]2C[C@@](C)(OC)[C@@H](O)[C@H](C)O2)[C@H](C)[C@@H](O[C@@H]2O[C@H](C)C[C@H](N(C)C)[C@H]2O)[C@](C)(O)C[C@@H](C)CN(CCCNC(=S)NC2CC3C=CC2C3)[C@H](C)[C@@H](O)[C@]1(C)O.O=CO (stereo partly drawn) [Example 151],0.171,0.181,0.299,
"CCNC(=O)NCCN1C[C@H](C)C[C@@](C)(O)[C@H](O[C@@H]2O[C@H](C)C[C@H](N(C)C)[C@H]2O)[C@@H](C)[C@H](O[C@H]2C[C@@](C)(OC)[C@@H](O)[C@H](C)O2)[C@@H](C)C(=O)O[C@H](CC)[C@@](C)(O)[C@H](O)[C@H]1C [Example 158, 9-Deoxo-9-dihydro-9a-[N′-(ethyl)carbamoyl-β-amino-ethyl]-9a-aza-9a-homoerythromycin A]",0.405,0.103,0.167,
"CC[C@H]1OC(=O)[C@H](C)[C@@H](O[C@H]2C[C@@](C)(OC)[C@@H](O)[C@H](C)O2)[C@H](C)[C@@H](O[C@@H]2O[C@H](C)C[C@H](N(C)C)[C@H]2O)[C@](C)(O)C[C@@H](C)CN(CCCN(CCC(N)=O)C(=S)NCCc2ccccc2)[C@H](C)[C@@H](O)[C@]1(C)O [Example 166, 9-Deoxo-9-dihydro-9a-{N′-(β-amidoethyl)-N′-[β-(phenylethyl)thiocarbamoyl]-γ-aminopropyl}-9a-aza-9a-homoerythromycin A]",0.23,0.161,0.458,
"CC[C@H]1OC(=O)[C@H](C)[C@@H](O[C@H]2C[C@@](C)(OC)[C@@H](O)[C@H](C)O2)[C@H](C)[C@@H](O[C@@H]2O[C@H](C)C[C@H](N(C)C)[C@H]2O)[C@](C)(O)C[C@@H](C)CN(CCCN(CCC(N)=O)C(=O)Nc2ccc(Cl)cc2Cl)[C@H](C)[C@@H](O)[C@]1(C)O [Example 169, 9-Deoxo-9-dihydro-9a-[N′-(β-amidoethyl)-N′-(2,4-dichlorophenyl)carbamoyl-γ-aminopropyl]-9a-aza-9a-homoerythromycin A]",,,,IC50 W2 [1]: 0.188 µg/mL; IC50 TM91C235 [2]: 0.1475 µg/mL; IC50 D6 [3]: 0.2266 µg/mL
CC[C@H]1OC(=O)[C@H](C)[C@@H](O[C@H]2C[C@@](C)(OC)[C@@H](O)[C@H](C)O2)[C@H](C)[C@@H](O[C@@H]2O[C@H](C)C[C@H](N(C)C)[C@H]2O)[C@](C)(O)C[C@@H](C)CN(C)[C@H](C)[C@@H](O)[C@]1(C)O [azithromycin],,,,prophylactic efficacy for Plasmodium vivax (Plasmodium vivax): 98.9%; prophylactic efficacy for Plasmodium falciparum (Plasmodium falciparum): 71.6%; efficacy in monkey model (Plasmodium cynomolgi): active
midecamycinin,,,,activity in mouse model (Plasmodium berghei): active; activity in mouse model [4]: active; efficacy in monkey model (Plasmodium cynomolgi): no efficacy
